Measured values: patent publication US11572369B2, “Bicyclic pyridine compositions and methods of using the same for cancer therapy” (UNIVERSITY OF SOUTH CAROLINA, priority 2019, dated 2023)

Assays:
Test in all cases: KINOMEscan
Format in all cases: binding
Conditions in all cases: 2000 nM
[1] = target: T1, ERK2 (Homo sapiens, UniProt P28482)
T1 construct: DNA label (qPCR read-out); purchased DiscoveRx (KINOMEscan ScanMAX panel)

[2] = target: T2, BIKE (Homo sapiens, UniProt Q9NSY1)
T2 construct: DNA label (qPCR read-out); purchased KINOMEscan scanMAX panel (DiscoveRx)
T2 sequence (Q9NSY1 whole entry): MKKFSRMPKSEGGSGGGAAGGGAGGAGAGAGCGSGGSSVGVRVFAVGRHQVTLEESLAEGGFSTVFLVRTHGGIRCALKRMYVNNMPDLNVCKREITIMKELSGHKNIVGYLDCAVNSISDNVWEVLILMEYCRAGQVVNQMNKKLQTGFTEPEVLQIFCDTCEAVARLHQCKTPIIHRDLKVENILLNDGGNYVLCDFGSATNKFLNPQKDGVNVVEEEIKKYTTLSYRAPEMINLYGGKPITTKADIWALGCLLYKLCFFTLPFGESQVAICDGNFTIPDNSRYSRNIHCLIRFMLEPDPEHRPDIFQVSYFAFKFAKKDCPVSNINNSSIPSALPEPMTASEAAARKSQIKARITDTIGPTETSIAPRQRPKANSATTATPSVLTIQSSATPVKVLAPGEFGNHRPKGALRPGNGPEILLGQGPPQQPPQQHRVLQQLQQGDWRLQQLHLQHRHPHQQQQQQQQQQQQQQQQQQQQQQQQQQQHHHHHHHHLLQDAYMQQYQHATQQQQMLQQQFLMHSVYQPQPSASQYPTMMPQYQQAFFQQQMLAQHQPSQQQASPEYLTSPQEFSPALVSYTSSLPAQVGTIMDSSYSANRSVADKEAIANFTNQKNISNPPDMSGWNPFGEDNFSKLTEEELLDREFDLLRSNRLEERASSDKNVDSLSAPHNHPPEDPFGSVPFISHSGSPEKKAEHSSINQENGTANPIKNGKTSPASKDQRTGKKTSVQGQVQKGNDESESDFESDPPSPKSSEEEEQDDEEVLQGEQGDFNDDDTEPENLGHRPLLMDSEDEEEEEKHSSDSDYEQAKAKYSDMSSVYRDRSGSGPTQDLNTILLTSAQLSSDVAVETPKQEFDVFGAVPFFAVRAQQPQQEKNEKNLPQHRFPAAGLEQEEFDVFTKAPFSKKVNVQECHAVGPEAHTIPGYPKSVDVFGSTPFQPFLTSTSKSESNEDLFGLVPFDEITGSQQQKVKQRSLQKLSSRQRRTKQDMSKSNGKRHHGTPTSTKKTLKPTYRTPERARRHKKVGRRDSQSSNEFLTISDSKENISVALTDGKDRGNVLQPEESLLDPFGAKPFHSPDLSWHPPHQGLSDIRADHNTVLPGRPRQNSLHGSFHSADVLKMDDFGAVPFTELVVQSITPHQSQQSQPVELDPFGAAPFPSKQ

[3] = target: T3, TBK1 (Homo sapiens, UniProt Q9UHD2)
T3 construct: DNA label (for qPCR read-out); purchased DiscoveRx (KINOMEscan scanMAX panel, contract assay)

[4] = target: T4, MEK6 (Homo sapiens, UniProt P52564)
T4 construct: purchased DiscoveRx (KINOMEscan scanMAX panel, service)

[5] = target: T5, PRKR (Homo sapiens, UniProt P19525)
T5 construct: purchased DiscoveRx (KINOMEscan scanMAX panel)
T5 sequence (P19525 whole entry): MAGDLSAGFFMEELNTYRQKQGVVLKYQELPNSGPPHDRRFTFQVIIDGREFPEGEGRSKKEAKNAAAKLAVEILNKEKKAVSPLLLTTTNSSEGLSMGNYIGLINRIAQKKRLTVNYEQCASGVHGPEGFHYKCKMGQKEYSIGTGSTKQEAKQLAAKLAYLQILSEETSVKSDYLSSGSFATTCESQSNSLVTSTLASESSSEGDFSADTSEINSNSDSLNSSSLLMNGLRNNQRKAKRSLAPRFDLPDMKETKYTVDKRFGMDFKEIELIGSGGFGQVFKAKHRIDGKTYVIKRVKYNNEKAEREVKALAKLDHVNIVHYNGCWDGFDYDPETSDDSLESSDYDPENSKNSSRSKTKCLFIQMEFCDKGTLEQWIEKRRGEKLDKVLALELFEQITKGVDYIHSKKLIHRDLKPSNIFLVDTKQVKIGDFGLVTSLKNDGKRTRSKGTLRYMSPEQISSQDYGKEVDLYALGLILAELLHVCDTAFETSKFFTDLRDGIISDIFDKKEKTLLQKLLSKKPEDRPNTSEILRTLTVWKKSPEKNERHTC

[6] = target: T6, JAK2(JH1domain-catalytic) (Homo sapiens, UniProt O60674)
T6 construct: JAK2(JH1domain-catalytic); DNA label (for qPCR read-out); purchased DiscoveRx (KINOMEscan scanMAX panel)

[7] = target: T7, TAOK1 (Homo sapiens, UniProt Q7L7X3)
T7 construct: DNA label (for qPCR read-out); purchased DiscoveRx (KINOMEscan scanMAX panel, contract assay)

[8] = target: T8, HIPK2 (Homo sapiens, UniProt Q9H2X6)
T8 construct: DNA label (for qPCR read-out); purchased DiscoveRx (KINOMEscan scanMAX panel, contract assay)

[9] = target: T9, FYN (Homo sapiens, UniProt P06241)
T9 construct: purchased KINOMEscan (DiscoveRx)

[10] = target: T10, CDK8 (Homo sapiens, UniProt P49336)
T10 construct: DNA label (qPCR read-out); purchased DiscoverX (assay service)
T10 sequence (P49336 whole entry): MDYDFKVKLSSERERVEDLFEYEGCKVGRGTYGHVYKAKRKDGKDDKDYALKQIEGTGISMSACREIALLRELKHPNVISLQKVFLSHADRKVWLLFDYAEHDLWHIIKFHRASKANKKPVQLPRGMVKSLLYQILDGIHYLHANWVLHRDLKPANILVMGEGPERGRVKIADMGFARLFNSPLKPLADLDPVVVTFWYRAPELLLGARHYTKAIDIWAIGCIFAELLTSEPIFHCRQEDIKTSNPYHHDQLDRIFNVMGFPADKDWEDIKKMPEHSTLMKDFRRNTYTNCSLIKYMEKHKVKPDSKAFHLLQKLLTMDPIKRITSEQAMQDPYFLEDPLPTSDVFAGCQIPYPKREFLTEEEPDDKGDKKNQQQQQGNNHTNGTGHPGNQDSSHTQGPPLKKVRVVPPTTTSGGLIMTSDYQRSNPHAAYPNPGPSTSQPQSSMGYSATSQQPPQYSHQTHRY

[11] = target: T11, EGFR(L861Q) (Homo sapiens, UniProt P00533, L861Q)
T11 construct: purchased DiscoveRx (KINOMEscan scanMAX panel)

[12] = target: T12, KIT-autoinhibited (Homo sapiens, UniProt P10721)
T12 construct: purchased KINOMEscan (DiscoveRx) panel service

[13] = target: T13, KIT (Homo sapiens, UniProt P10721)
T13 construct: DNA label (for qPCR read-out); purchased DiscoveRx (KINOMEscan scanMAX panel)

[14] = target: T14, CAMK1G (Homo sapiens, UniProt Q96NX5)
T14 construct: DNA label (qPCR read-out); purchased KINOMEscan (ScanMAX panel service)

[15] = target: T15, AURKA (Homo sapiens, UniProt O14965)
T15 construct: DNA label (qPCR read-out); purchased KINOMEscan scanMAX panel (DiscoveRx)

[16] = target: T16, NLK (Homo sapiens, UniProt Q9UBE8)
T16 construct: DNA label (qPCR read-out); purchased KINOMEscan (ScanMAX panel service)
T16 sequence (Q9UBE8 whole entry): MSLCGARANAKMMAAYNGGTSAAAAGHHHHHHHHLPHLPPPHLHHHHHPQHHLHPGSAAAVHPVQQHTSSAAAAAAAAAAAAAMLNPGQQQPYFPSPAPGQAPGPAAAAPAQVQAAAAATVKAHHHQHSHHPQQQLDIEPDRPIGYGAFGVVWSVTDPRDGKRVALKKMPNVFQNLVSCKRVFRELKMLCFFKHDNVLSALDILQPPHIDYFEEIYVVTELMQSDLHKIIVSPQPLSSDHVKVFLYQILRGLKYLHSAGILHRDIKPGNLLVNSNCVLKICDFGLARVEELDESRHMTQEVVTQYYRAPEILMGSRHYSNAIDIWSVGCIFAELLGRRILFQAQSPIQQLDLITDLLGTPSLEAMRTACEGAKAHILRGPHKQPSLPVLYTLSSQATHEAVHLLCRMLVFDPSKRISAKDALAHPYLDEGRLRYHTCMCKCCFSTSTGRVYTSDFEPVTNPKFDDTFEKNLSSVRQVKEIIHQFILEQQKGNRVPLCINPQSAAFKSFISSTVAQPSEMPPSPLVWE

[17] = target: T17, ERK3 (Homo sapiens, UniProt Q16659)
T17 construct: DNA label (qPCR read-out); purchased DiscoveRx (KINOMEscan ScanMAX panel)

[18] = target: T18, WNK4 (Homo sapiens, UniProt Q96J92)
T18 construct: purchased KINOMEscan (DiscoveRx) panel service

[19] = target: T19, PIK3CD (Homo sapiens, UniProt O00329)
T19 construct: DNA label; purchased DiscoveRx (KINOMEscan scanMAX panel)

[20] = target: T20, EPHA3 (Homo sapiens, UniProt P29320)
T20 construct: purchased DiscoveRx (KINOMEscan scanMAX panel)

[21] = target: T21, PCTK2 (Homo sapiens, UniProt Q00537)
T21 construct: purchased DiscoverX (KINOMEscan service)
T21 sequence (Q00537 whole entry): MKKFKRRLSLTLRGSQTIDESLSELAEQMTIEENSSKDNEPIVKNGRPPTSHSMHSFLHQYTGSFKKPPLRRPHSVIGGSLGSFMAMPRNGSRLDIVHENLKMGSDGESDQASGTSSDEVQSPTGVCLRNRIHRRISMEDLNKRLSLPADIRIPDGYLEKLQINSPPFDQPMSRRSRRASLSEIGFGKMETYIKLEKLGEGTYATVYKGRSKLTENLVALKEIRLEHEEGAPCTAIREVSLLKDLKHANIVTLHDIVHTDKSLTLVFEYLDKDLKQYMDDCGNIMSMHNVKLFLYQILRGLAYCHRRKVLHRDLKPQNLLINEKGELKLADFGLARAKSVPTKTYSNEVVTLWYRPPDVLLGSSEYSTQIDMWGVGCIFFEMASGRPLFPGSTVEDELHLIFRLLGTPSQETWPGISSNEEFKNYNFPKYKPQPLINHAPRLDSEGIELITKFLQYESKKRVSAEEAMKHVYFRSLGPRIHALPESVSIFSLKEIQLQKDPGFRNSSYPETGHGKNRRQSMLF

[22] = target: T22, LIMK1 (Homo sapiens, UniProt P53667)
T22 construct: purchased KINOMEscan (DiscoveRx) panel service

[23] = target: T23, GSK3A (Homo sapiens, UniProt P49840)
T23 construct: DNA label (qPCR read-out); purchased DiscoverX (assay service)

[24] = target: ABL1(Q252H)-nonphosphorylated (Homo sapiens, UniProt P00519, Q252H)
[25] = target: T24, RPS6KA5(Kin.Dom.1-N-terminal) (Homo sapiens, UniProt O75582)
T24 construct: Kin.Dom.1; DNA label (qPCR read-out); purchased DiscoveRx (KINOMEscan ScanMAX panel)
T24 sequence (O75582 49-318 limits assumed): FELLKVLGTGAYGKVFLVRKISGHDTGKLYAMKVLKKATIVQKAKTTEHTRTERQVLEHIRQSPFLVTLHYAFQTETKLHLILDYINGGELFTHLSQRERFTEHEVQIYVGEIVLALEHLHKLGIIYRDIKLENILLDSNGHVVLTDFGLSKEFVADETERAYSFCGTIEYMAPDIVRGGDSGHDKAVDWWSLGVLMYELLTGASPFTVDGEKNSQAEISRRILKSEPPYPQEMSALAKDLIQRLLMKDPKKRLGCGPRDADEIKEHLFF

[26] = target: T25, KIT(D816V) (Homo sapiens, UniProt P10721, D816V)
T25 construct: DNA label (for qPCR read-out); purchased DiscoveRx (KINOMEscan scanMAX panel)

[27] = target: T26, TXK (Homo sapiens, UniProt P42681)
T26 construct: DNA label (for qPCR read-out); purchased DiscoveRx (KINOMEscan scanMAX panel)

[28] = target: T27, ACVR1B (Homo sapiens, UniProt P36896)
T27 construct: purchased DiscoveRx (KINOMEscan scanMAX panel, service)

[29] = target: T28, EPHA5 (Homo sapiens, UniProt P54756)
T28 construct: purchased DiscoveRx (KINOMEscan scanMAX panel)

[30] = target: T29, MEK5 (Homo sapiens, UniProt Q13163)
T29 construct: purchased DiscoveRx (KINOMEscan scanMAX panel, service)

[31] = target: T30, BRAF (Homo sapiens, UniProt P15056)
T30 construct: DNA label (for qPCR read-out); purchased KINOMEscan scanMAX panel (DiscoveRx)
T30 sequence (P15056 whole entry): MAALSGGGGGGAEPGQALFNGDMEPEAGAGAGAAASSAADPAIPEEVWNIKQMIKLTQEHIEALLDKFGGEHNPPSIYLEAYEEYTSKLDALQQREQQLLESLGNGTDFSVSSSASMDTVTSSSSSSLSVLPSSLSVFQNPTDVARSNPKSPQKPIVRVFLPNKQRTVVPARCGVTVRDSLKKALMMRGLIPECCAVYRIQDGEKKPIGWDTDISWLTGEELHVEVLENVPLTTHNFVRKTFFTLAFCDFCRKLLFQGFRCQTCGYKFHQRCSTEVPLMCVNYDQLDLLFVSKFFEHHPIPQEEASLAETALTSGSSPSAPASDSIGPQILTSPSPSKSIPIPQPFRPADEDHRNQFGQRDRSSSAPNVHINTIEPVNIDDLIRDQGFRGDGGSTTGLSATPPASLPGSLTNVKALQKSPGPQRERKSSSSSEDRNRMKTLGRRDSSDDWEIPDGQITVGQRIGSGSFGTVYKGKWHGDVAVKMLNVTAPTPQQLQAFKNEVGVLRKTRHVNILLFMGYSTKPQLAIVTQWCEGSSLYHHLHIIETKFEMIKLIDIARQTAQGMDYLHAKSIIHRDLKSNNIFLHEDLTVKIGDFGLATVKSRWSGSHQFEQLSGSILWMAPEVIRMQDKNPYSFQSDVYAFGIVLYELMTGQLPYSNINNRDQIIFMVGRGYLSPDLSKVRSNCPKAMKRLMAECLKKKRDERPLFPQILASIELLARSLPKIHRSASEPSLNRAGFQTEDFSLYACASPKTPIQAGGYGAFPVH

[32] = target: T31, ROS1 (Homo sapiens, UniProt P08922)
T31 construct: DNA label (qPCR read-out); purchased DiscoveRx (KINOMEscan ScanMAX panel)

[33] = target: MARK2 (Homo sapiens, UniProt Q7KZI7)
Sequence of MARK2 (Q7KZI7 whole entry): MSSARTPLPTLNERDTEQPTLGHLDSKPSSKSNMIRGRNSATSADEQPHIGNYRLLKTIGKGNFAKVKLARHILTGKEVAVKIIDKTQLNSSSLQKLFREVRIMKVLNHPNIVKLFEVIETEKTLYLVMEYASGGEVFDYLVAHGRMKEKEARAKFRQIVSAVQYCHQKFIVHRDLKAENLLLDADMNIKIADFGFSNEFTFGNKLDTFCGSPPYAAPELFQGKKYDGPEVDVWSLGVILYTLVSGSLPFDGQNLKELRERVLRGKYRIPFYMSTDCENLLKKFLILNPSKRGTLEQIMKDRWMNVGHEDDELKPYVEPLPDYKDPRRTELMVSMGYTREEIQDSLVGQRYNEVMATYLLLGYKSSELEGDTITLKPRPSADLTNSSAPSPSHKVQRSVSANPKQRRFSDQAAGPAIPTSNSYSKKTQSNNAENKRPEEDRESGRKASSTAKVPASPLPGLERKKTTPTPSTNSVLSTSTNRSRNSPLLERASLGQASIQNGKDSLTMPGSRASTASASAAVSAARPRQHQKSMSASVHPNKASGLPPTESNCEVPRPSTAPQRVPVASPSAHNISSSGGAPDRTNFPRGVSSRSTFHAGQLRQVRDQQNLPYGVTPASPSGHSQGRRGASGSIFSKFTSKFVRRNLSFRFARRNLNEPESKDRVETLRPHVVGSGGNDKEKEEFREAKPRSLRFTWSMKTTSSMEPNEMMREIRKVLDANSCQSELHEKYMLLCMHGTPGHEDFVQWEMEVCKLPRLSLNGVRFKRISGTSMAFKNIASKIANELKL

[34] = target: T32, PIP5K2B (Homo sapiens, UniProt P78356)
T32 construct: DNA label (qPCR read-out); purchased KINOMEscan (DiscoveRx) panel

[35] = target: T33, EPHA4 (Homo sapiens, UniProt P54764)
T33 construct: purchased DiscoveRx (KINOMEscan scanMAX panel)

With `CN(C)C(=O)c1ccc(N2CCCN(c3ccnc4sc(C(N)=O)c(N)c34)CC2)cc1` [15u, 3-amino-4-(4-(4-(dimethylcarbamoyl)phenyl)-1,4-diazepan-1-yl)thieno[2,3-b]pyridine-2-carboxamide] the “% Ctrl” value [1] was 78 % Ctrl, the “% Ctrl” value [2] was 100 % Ctrl and the “% Ctrl” value [3] was 99 % Ctrl. For the same compound, the “% Ctrl” value [4] was 100 % Ctrl, the “% Ctrl” value [5] was 100 % Ctrl and the “% Ctrl” value [6] was 100 % Ctrl. For the same compound, the “% Ctrl” value [7] was 100 % Ctrl, the “% Ctrl” value [8] was 100 % Ctrl and the “% Ctrl” value [9] was 99 % Ctrl. The “% Ctrl” value [10] was 2.6 % Ctrl, the “% Ctrl” value [11] was 78 % Ctrl and the “% Ctrl” value [12] was 90 % Ctrl. The “% Ctrl” value [13] was 95 % Ctrl, the “% Ctrl” value [14] was 99 % Ctrl and the “% Ctrl” value [15] was 98 % Ctrl. For the same compound, the “% Ctrl” value [16] was 98 % Ctrl, the “% Ctrl” value [17] was 88 % Ctrl and the “% Ctrl” value [18] was 60 % Ctrl. For the same compound, the “% Ctrl” value [19] was 94 % Ctrl, the “% Ctrl” value [20] was 100 % Ctrl and the “% Ctrl” value [21] was 62 % Ctrl. For the same compound, the “% Ctrl” value [22] was 100 % Ctrl, the “% Ctrl” value [23] was 31 % Ctrl and the “% Ctrl” value [24] was 94 % Ctrl. For the same compound, the “% Ctrl” value [25] was 75 % Ctrl, the “% Ctrl” value [26] was 93 % Ctrl and the “% Ctrl” value [27] was 93 % Ctrl. The “% Ctrl” value [28] was 100 % Ctrl, the “% Ctrl” value [29] was 89 % Ctrl and the “% Ctrl” value [30] was 86 % Ctrl. The “% Ctrl” value [31] was 100 % Ctrl, the “% Ctrl” value [32] was 95 % Ctrl and the “% Ctrl” value [33] was 100 % Ctrl. For the same compound, the “% Ctrl” value [34] was 92 % Ctrl and the “% Ctrl” value [35] was 100 % Ctrl.
For `[2H]C([2H])([2H])N(C(=O)c1ccc(N2CCCN(c3ccnc4sc(C(N)=O)c(N)c34)CC2)cc1)C([2H])([2H])[2H]` [15u_D6, 3-amino-4-(4-(4-(bis(methyl-d3)carbamoyl)phenyl)-1,4-diazepan-1-yl)thieno[2,3-b]pyridine-2-carboxamide], the “% Ctrl” value [1] was 92 % Ctrl, the “% Ctrl” value [2] was 96 % Ctrl and the “% Ctrl” value [3] was 97 % Ctrl. For the same compound, the “% Ctrl” value [4] was 96 % Ctrl, the “% Ctrl” value [5] was 100 % Ctrl and the “% Ctrl” value [6] was 93 % Ctrl. For the same compound, the “% Ctrl” value [7] was 73 % Ctrl, the “% Ctrl” value [8] was 81 % Ctrl and the “% Ctrl” value [9] was 97 % Ctrl. The “% Ctrl” value [10] was 0.25 % Ctrl, the “% Ctrl” value [11] was 100 % Ctrl and the “% Ctrl” value [12] was 90 % Ctrl. The “% Ctrl” value [13] was 95 % Ctrl, the “% Ctrl” value [14] was 99 % Ctrl and the “% Ctrl” value [15] was 99 % Ctrl. The “% Ctrl” value [16] was 98 % Ctrl, the “% Ctrl” value [17] was 94 % Ctrl and the “% Ctrl” value [18] was 98 % Ctrl. For the same compound, the “% Ctrl” value [19] was 71 % Ctrl, the “% Ctrl” value [20] was 87 % Ctrl and the “% Ctrl” value [21] was 100 % Ctrl. The “% Ctrl” value [22] was 100 % Ctrl, the “% Ctrl” value [23] was 34 % Ctrl and the “% Ctrl” value [24] was 83 % Ctrl. For the same compound, the “% Ctrl” value [25] was 100 % Ctrl, the “% Ctrl” value [26] was 79 % Ctrl and the “% Ctrl” value [27] was 100 % Ctrl. The “% Ctrl” value [28] was 99 % Ctrl, the “% Ctrl” value [29] was 96 % Ctrl and the “% Ctrl” value [30] was 65 % Ctrl. The “% Ctrl” value [31] was 96 % Ctrl, the “% Ctrl” value [32] was 100 % Ctrl and the “% Ctrl” value [33] was 96 % Ctrl. The “% Ctrl” value [34] was 95 % Ctrl and the “% Ctrl” value [35] was 100 % Ctrl.
